Measured values reported in paper PMC6917776, “Discovery of a chemical probe for PRDM9” (Nature Communications, 2019).
Where two headings read alike, the source gives them in different places.

Tests used:
Experiment in all cases: Methyltransferase selectivity assay (SPA)
Format in all cases: biochemical
SETDB1 = biological target: T1, SETDB1 (Homo sapiens, UniProt Q15047)
T1 construct: purchased Structural Genomics Consortium (SGC Toronto) in-house methyltransferase panel

MLL1 trimeric complex = biological target: T2, MLL1 trimeric complex (Homo sapiens, UniProt Q03164)
T2 construct: purchased Structural Genomics Consortium (SGC Toronto) in-house methyltransferase panel

SUV420H1 = biological target: T3, SUV420H1 (Homo sapiens, UniProt Q4FZB7)
T3 construct: purchased Structural Genomics Consortium (SGC Toronto) in-house methyltransferase panel

[1] = biological target: T4, EZH2 (PRC2) trimeric complex (Homo sapiens, UniProt Q15910)
T4 construct: purchased Structural Genomics Consortium (SGC Toronto) in-house methyltransferase panel

PRMT8 = biological target: T5, PRMT8 (Homo sapiens, UniProt Q9NR22); settings: for Activity % / activity at 1 µM: 1µM compound; for Activity %: Exp1, Exp2, 1 µM; for activity at 10 µM: 10µM compound
T5 construct: purchased Structural Genomics Consortium (SGC Toronto) in-house methyltransferase panel
How it was run: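 Radiometric 3H-SAM assays at SAM and substrate concentrations near each enzyme's apparent Km. PRMT8 and SETD2 methylated biotinylated substrate, read by scintillation proximity after guanidine quench. ASH1L and NSD3 methylated nucleosome substrate for 1 h at 23°C, then TCA precipitation on filters and scintillation counting.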

[2] = 1µM compound, Exp1, Exp2, read-out: Activity %
[3] = 10µM compound, Exp1, Exp2, 10 µM
[4] = 10µM compound, Exp1, Exp2, read-out: Activity %
[5] = Exp1, Exp2, read-out: Activity %

T3 sequence (Q4FZB7 whole entry): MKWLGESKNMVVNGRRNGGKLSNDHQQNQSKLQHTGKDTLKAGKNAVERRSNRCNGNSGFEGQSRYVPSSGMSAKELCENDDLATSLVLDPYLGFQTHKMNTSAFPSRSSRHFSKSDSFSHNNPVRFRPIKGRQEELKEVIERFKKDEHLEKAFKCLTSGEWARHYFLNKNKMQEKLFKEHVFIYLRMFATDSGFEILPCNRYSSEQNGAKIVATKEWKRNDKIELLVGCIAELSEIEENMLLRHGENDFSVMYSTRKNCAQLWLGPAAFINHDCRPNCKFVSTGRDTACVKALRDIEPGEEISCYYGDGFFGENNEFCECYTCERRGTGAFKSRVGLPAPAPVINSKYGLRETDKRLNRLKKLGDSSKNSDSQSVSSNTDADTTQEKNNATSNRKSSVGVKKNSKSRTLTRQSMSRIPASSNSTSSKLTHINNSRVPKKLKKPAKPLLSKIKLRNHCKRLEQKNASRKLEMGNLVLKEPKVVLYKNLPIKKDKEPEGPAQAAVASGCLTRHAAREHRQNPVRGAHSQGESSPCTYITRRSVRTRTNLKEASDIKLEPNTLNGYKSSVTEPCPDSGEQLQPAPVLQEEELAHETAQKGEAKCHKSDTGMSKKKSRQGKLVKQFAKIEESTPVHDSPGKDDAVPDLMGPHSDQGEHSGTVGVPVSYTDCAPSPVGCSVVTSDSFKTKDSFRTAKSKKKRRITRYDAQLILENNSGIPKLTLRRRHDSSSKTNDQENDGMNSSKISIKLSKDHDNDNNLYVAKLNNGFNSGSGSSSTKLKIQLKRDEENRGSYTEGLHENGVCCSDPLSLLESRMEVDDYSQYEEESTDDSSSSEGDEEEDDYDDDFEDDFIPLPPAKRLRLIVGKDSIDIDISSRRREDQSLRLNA
T4 sequence (Q15910 whole entry): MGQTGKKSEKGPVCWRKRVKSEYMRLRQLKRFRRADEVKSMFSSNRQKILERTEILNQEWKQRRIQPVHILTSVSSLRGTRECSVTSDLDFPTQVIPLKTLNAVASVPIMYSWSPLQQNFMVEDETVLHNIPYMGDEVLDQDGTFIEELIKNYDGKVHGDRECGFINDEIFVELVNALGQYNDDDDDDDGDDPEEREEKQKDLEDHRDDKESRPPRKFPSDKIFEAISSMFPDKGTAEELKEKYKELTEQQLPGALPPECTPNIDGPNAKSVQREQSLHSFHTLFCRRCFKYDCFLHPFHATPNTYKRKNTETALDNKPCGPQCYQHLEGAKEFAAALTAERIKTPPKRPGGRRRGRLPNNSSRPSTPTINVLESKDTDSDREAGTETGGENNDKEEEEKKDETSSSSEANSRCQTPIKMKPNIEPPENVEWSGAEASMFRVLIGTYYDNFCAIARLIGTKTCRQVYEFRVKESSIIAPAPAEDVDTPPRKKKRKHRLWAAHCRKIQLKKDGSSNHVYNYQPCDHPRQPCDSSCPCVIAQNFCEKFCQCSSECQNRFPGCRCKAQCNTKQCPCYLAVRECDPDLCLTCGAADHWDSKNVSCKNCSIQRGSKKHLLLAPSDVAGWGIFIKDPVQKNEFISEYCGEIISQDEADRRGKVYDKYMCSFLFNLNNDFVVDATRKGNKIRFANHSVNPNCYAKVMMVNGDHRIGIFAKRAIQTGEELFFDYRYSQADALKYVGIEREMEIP
T4 sequence (O75530 whole entry partner): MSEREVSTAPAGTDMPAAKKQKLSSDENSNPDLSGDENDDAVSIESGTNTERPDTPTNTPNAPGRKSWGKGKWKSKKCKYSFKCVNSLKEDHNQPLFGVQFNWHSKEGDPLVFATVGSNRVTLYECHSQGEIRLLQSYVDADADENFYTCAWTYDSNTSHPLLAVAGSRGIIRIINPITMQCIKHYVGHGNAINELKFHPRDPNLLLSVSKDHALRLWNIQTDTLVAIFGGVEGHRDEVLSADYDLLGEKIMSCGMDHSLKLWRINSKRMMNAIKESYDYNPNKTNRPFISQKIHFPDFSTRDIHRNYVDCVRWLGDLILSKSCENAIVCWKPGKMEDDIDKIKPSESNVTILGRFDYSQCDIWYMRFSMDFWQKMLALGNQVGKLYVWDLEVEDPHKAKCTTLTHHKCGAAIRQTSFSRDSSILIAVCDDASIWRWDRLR
T4 sequence (Q15022 whole entry partner): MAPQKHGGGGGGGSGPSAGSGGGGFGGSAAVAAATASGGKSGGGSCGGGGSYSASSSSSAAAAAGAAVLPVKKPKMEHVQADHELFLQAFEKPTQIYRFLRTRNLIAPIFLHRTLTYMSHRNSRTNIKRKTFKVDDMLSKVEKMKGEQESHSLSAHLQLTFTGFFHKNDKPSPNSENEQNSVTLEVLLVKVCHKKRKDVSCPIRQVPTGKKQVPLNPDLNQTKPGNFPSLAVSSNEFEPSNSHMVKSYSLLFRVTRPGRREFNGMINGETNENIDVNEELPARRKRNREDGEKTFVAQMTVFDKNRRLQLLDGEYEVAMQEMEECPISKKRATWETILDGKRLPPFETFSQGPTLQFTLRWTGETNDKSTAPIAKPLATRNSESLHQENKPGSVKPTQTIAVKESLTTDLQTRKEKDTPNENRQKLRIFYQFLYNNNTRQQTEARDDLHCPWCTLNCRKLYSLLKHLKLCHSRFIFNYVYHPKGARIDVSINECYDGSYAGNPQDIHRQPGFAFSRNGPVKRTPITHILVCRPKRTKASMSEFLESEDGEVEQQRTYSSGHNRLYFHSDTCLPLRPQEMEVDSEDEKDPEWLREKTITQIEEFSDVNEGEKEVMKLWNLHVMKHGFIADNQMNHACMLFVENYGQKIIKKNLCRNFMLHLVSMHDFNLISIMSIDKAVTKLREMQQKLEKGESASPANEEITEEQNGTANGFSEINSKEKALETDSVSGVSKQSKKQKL
T5 sequence (Q9NR22 whole entry): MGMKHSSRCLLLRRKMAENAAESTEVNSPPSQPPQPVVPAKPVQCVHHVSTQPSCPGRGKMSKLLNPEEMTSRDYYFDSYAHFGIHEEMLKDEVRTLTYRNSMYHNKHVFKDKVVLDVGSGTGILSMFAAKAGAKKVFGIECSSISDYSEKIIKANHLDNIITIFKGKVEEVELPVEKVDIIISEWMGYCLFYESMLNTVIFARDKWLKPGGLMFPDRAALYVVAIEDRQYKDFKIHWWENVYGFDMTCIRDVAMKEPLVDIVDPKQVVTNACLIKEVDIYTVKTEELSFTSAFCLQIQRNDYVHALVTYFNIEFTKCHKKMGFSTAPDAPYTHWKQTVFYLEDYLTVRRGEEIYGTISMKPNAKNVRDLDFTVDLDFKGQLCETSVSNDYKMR

Work on `COc1cc(OC)cc(-c2noc(N3CCN(C)C4(CCN(c5ccnc(C)c5)CC4)C3)n2)c1` [MRK-740] yielded an Activity % (SETDB1; 1µM compound, Exp1, Exp2, 1 µM) of 84%, an activity at 1 µM (SETDB1; [2]) of 81% and an Activity % (SETDB1; [3]) of 96%. The activity at 10 µM (SETDB1; [4]) was 86%, the Activity % (MLL1 trimeric complex; 1µM compound, Exp1, Exp2, 1 µM) was 90% and the activity at 1 µM (MLL1 trimeric complex; [2]) was 96%. For the same compound, the Activity % (MLL1 trimeric complex; [3]) was 90%, the activity at 10 µM (MLL1 trimeric complex; [4]) was 94% and the Activity % (SUV420H1; 1µM compound, Exp1, Exp2, 1 µM) was 102%. The activity at 1 µM (SUV420H1; [2]) was 101%, the Activity % (SUV420H1; [3]) was 103% and the activity at 10 µM (SUV420H1; [4]) was 86%. It also gave an Activity % ([1]; 1µM compound, Exp1, Exp2, 1 µM) of 104%, an activity at 1 µM [1, 2] of 102% and an Activity % [1, 3] of 103%. For the same compound, the activity at 10 µM [1, 4] was 102%, the Activity % (PRMT8) was 95% and the activity at 1 µM (PRMT8; [5]) was 104%. The activity at 10 µM (PRMT8; [5]) was 105%.

For `COc1cc(OC)cc(-c2noc(N3CCN(C)C4(CCN(c5ccccc5)CC4)C3)n2)c1` [MRK-740 -NC], the activity at 1 µM (SETDB1; 1µM compound, Exp1, Exp2) was 104%, the activity at 10 µM (SETDB1; 10µM compound, Exp1, Exp2) was 101% and the Activity % (SETDB1; [3]) was 86%. The activity at 1 µM (MLL1 trimeric complex; 1µM compound, Exp1, Exp2) was 95%, the activity at 10 µM (MLL1 trimeric complex; 10µM compound, Exp1, Exp2) was 98% and the Activity % (MLL1 trimeric complex; [3]) was 97%. The activity at 1 µM (SUV420H1; 1µM compound, Exp1, Exp2) was 103%, the Activity % (SUV420H1; 1µM compound, Exp1, Exp2, 1 µM) was 105% and the activity at 10 µM (SUV420H1; 10µM compound, Exp1, Exp2) was 99%. For the same compound, the Activity % (SUV420H1; [3]) was 95%, the activity at 1 µM ([1]; 1µM compound, Exp1, Exp2) was 99% and the Activity % ([1]; 1µM compound, Exp1, Exp2, 1 µM) was 112%. For the same compound, the activity at 10 µM ([1]; 10µM compound, Exp1, Exp2) was 100%, the Activity % [1, 3] was 95% and the activity at 1 µM (PRMT8; Exp1, Exp2) was 97%. It also gave an Activity % (PRMT8) of 104% and an activity at 10 µM (PRMT8; Exp1, Exp2) of 98%.
